Measured values taken from patent US4241052A, “Novel nitrosourea compounds and process for preparing the same” (Tanabe Seiyaku Co., Ltd., priority 1978, dated 1980).

Columns and labels:
[1] = system: Ehrlich ascites carcinoma; assay: Preventive effect against the growth of Ehrlich ascites carcinoma (Method A); type: in vivo, mice (ICR, female); settings: for therapeutic index (M.T.D./M.E.D.), times greater than that of GANU: Ehrlich ascites tumor, relative to GANU; for inhibition in vivo at 0.39 mg/kg: 0.39 mg/kg/day i.p.; for inhibition in vivo at 0.78 mg/kg: 0.78 mg/kg/day i.p.; for inhibition in vivo at 1.56 mg/kg: 1.56 mg/kg/day i.p.; for inhibition in vivo at 25 mg/kg: 25 mg/kg/day i.p.; for minimal effective dose: 168 h, min dose, 100% inhibition, read-out: MED (Minimum Effective Dose); for inhibition in vivo at 0.19 mg/kg: 0.19 mg/kg/day i.p.
Experimental: (§1) (A) Preventive effect against the growth of Ehrlich ascites tumor
(§2) 10^6 tumor cells of Ehrlich ascites carcinoma were inoculated intraperitoneally into a group of five femal mice (ICR mice, body weight: 19-23 g). A test compound was dissolved in a physiological saline solution and administered intraperitoneally to the mice. The administration of the test compound was began 24 hours after the inoculation of the tumor cells and performed once a day for 5 days. The volume of ascites in the treated mice were measured after 7 days of the experiment.

Leukemia L-1210 = assay: Effect on life span of mice implanted with leukemic cells of L-1210 (Method B); type: in vivo, mice (BDF1, male); settings: five consecutive days
Experimental: (B) Effect on the life span of mice implanted with leukemic cells of L-1210
10^5 leukemic cells of L-1210 were inoculated intraperitoneally into a group of four male mice (BDF1 mice, body weight: 19-23 g). A test compound was dissolved in a physiological saline solution and administered intraperitoneally to the mice. The administration of the test compound was began 24 hours after the inoculation of the leukemic cells and performed once a day for 5 days. The survival days of the treated mice were observed.

[2] = Preventive effect against the growth of Ehrlich ascites carcinoma (Method A); type: in vivo, mice (ICR, female); settings: mouse, in vivo, ip; max dose, 100% inhibition without death; doses of the table in mg/kg/day; read-out: MTD (Maximum Tolerated Dose)
Experimental: as §1, §2

[3] = Mus musculus, Ehrlich, ip, 120 h, 5 days, read-out: Inhibition ratio
[4] = Mus musculus, Ehrlich, ip, 120 h, 6.25 mg/kg/day i.p., 5 days, read-out: Inhibition ratio
[5] = Mus musculus, Ehrlich, ip, 120 h, 100 mg/kg/day i.p., 5 days, read-out: Inhibition ratio
[6] = Mus musculus, Ehrlich, ip, 120 h, 400 mg/kg/day i.p., 5 days, read-out: Inhibition ratio
[7] = Mus musculus, Ehrlich, ip, doses of the table in mg/kg/day
[8] = Mus musculus, Ehrlich, ip, 120 h, 3.12 mg/kg/day i.p., 5 days, read-out: Inhibition ratio
[9] = Mus musculus, Ehrlich, ip, 120 h, 12.5 mg/kg/day i.p., 5 days, read-out: Inhibition ratio
[10] = Mus musculus, Ehrlich, ip, 120 h, 50 mg/kg/day i.p., 5 days, read-out: Inhibition ratio

SMILES	Therapeutic index (MTD/MED) [1]	inhibition in vivo at 0.39 mg/kg [1, 3] [%]	inhibition in vivo at 0.78 mg/kg [1, 3] [%]	inhibition in vivo at 1.56 mg/kg [1, 3] [%]	inhibition in vivo at 6.25 mg/kg [1, 4] [%]	inhibition in vivo at 25 mg/kg [1, 3] [%]	inhibition in vivo at 100 mg/kg [1, 5] [%]	minimal effective dose [1, 7] [mg/kg/day]	MTD at 168 h [2] [mg/kg/day]	also measured
COc1ccc(CN(C(=O)N(CCCl)N=O)C2O[C@H](CO)[C@@H](O[C@H]3O[C@H](CO)[C@@H](O)[C@H](O)[C@H]3O)[C@H](O)[C@H]2O)cc1 (stereo partly drawn)	–	–	–	–	–	–	–	–	–	therapeutic index (M.T.D./M.E.D.), times greater than that of GANU [1]: about 8 times
O=NN(CCCl)C(=O)N(Cc1cccs1)C1O[C@H](CO)[C@@H](O[C@H]2O[C@H](CO)[C@@H](O)[C@H](O)[C@H]2O)[C@H](O)[C@H]1O (stereo partly drawn)	–	–	–	–	–	–	–	–	–	therapeutic index (M.T.D./M.E.D.), times greater than that of GANU [1]: about 8 times
O=NN(CCCl)C(=O)N(Cc1ccccc1)C1O[C@H](CO)[C@@H](O[C@H]2O[C@H](CO)[C@@H](O)[C@H](O)[C@H]2O)[C@H](O)[C@H]1O (stereo partly drawn)	–	–	–	–	–	–	–	–	–	therapeutic index (M.T.D./M.E.D.), times greater than that of GANU [1]: about 8 times
O=NN(CCCl)C(=O)N(CC1CO1)C1OC[C@H](O)[C@H](O)[C@H]1O (stereo partly drawn) [1-(2-chloroethyl)-1-nitroso-3-(oxiran-2-yl-methyl)-3-(L-arabinopyranosyl)urea]	–	–	–	–	–	–	–	–	–	increase in the average life span (Leukemia L-1210; 1.05 mg/kg i.p.): about 30%
O=NN(CCCl)C(=O)N(Cc1cccs1)C1OC[C@H](O)[C@H](O)[C@H]1O (stereo partly drawn) [1-(2-chloroethyl)-1-nitroso-3-(thiophen-2-yl-methyl)-3-(L-arabinopyranosyl)urea]	–	–	–	–	–	–	–	–	–	increase in the average life span (Leukemia L-1210; 0.35 mg/kg i.p.): about 30%
O=NN(CCCl)C(=O)N(CC1CC1)C1OC[C@H](O)[C@H](O)[C@H]1O (stereo partly drawn) [1-(2-chloroethyl)-1-nitroso-3-cyclopropylmethyl-3-(L-arabinopyranosyl)urea]	–	–	–	–	–	–	–	–	–	increase in the average life span (Leukemia L-1210; 1.1 mg/kg i.p.): about 30%
O=NN(CCCl)C(=O)N(CC1CCCO1)C1O[C@H](CO)[C@H](O)[C@H](O)[C@H]1O (stereo partly drawn) [1-(2-chloroethyl)-1-nitroso-3-tetrahydrofurfuryl-3-(D-galactopyranosyl)urea]	–	–	–	–	–	–	–	–	–	increase in the average life span (Leukemia L-1210; 1.7 mg/kg i.p.): about 30%
O=NN(CCCl)C(=O)NC1CCCCC1 [CCNU, 1-(2-chloroethyl)-1-nitroso-3-cyclohexylurea, reference compound]	4	–	–	–	–	–	–	–	–	Inhibition ratio ([1]; 3.12 mg/kg/day i.p., 5 days): 21.1%; Inhibition ratio ([1]; 6.25 mg/kg/day i.p., 5 days): 33.3%; Inhibition ratio ([1]; 12.5 mg/kg/day i.p., 5 days): 100%; Inhibition ratio ([1]; 50 mg/kg/day i.p., 5 days): 100%; Toxic (number of mice died/number of mice used) ([1]; 100 mg/kg/day i.p., 5 days): 5/5; MTD (Maximum Tolerated Dose) ([1]; max dose, 100% inhibition without death, doses of the table in mg/kg/day, 10080 min): 50
Cc1ccc(CN(C(=O)N(CCCl)N=O)C2O[C@H](CO)[C@@H](O[C@H]3O[C@H](CO)[C@@H](O)[C@H](O)[C@H]3O)[C@H](O)[C@H]2O)cc1 (stereo partly drawn) [Compound 2, 1-(2-chloroethyl)-1-nitroso-3-(p-methylbenzyl)-3-[O-α-D-glucopyranosyl-(1→4)-D-glucopyranosyl]urea]	256	12.8	74.4	100	100	100	100	1.56	400	Toxic (number of mice died/number of mice used) ([1]; 800 mg/kg/day i.p., 5 days): 5/5; inhibition in vivo at 400 mg/kg [1, 6]: 100%
O=NN(CCCl)C(=O)N(CCc1ccccc1)C1O[C@H](CO)[C@@H](O[C@H]2O[C@H](CO)[C@@H](O)[C@H](O)[C@H]2O)[C@H](O)[C@H]1O (stereo partly drawn) [Compound 4, 1-(2-chloroethyl)-1-nitroso-3-phenethyl-3-[O-α-D-glucopyranosyl-(1→4)-D-glucopyranosyl]urea]	64	–	2.6	66.7	–	–	–	3.12	200	Toxic (number of mice died/number of mice used) ([1]; 400 mg/kg/day i.p., 5 days): 5/5; inhibition in vivo at 3.12 mg/kg [1, 8]: 100%; inhibition in vivo at 12.5 mg/kg [1, 9]: 100%; inhibition in vivo at 50 mg/kg [1, 10]: 100%; inhibition in vivo at 200 mg/kg ([1]; Mus musculus, Ehrlich, ip, 120 h, 200 mg/kg/day i.p., 5 days, read-out: Inhibition ratio): 100%
CC(c1ccccc1)N(C(=O)N(CCCl)N=O)C1O[C@H](CO)[C@@H](O[C@H]2O[C@H](CO)[C@@H](O)[C@H](O)[C@H]2O)[C@H](O)[C@H]1O (stereo partly drawn) [Compound 5, 1-(2-chloroethyl)-1-nitroso-3-(α-methylbenzyl)-3-[O-α-D-glucopyranosyl-(1→4)-D-glucopyranosyl]urea]	128	–	–	6.2	100	100	100	3.12	400	Toxic (number of mice died/number of mice used) ([1]; 800 mg/kg/day i.p., 5 days): 4/5; inhibition in vivo at 3.12 mg/kg [1, 8]: 100%; inhibition in vivo at 400 mg/kg [1, 6]: 100%
O=NN(CCCl)C(=O)N(Cc1cccs1)C1O[C@H](CO)[C@@H](O[C@H]2O[C@H](CO)[C@@H](O)[C@H](O)[C@H]2O)[C@H](O)[C@H]1O (stereo partly drawn) [Compound 7, 1-(2-chloroethyl)-1-nitroso-3-(thiophen-2-yl-methyl)-3-[O-α-D-glucopyranosyl-(1→4)-D-glucopyranosyl]urea]	256	6.2	31.2	100	100	100	100	1.56	400	Toxic (number of mice died/number of mice used) ([1]; 800 mg/kg/day i.p., 5 days): 5/5; inhibition in vivo at 400 mg/kg [1, 6]: 100%
O=NN(CCCl)C(=O)N(Cc1ccccc1)C1OC[C@H](O)[C@H](O)[C@H]1O (stereo partly drawn) [Compound 11, 1-(2-chloroethyl)-1-nitroso-3-benzyl-3-(L-arabinopyranosyl)urea]	128	65.3	100	100	100	100	100	0.78	100	Toxic (number of mice died/number of mice used) ([1]; 200 mg/kg/day i.p., 5 days): 5/5; inhibition in vivo at 0.19 mg/kg [1, 3]: 18.4%
O=NN(CCCl)C(=O)N(CC1CO1)C1OC[C@H](O)[C@H](O)[C@H]1O (stereo partly drawn) [Compound 12, 1-(2-chloroethyl)-1-nitroso-3-(oxiran-2-yl-methyl)-3-(L-arabinopyranosyl)urea]	128	100	100	–	–	–	–	0.39	50	Toxic (number of mice died/number of mice used) ([1]; 100 mg/kg/day i.p., 5 days): 5/5; inhibition in vivo at 0.19 mg/kg [1, 3]: 20.9%; inhibition in vivo at 3.12 mg/kg [1, 8]: 100%; inhibition in vivo at 12.5 mg/kg [1, 9]: 100%; inhibition in vivo at 50 mg/kg [1, 10]: 100%
O=NN(CCCl)C(=O)N(Cc1ccco1)C1O[C@H](CO)[C@@H](O)[C@H]1O (stereo partly drawn) [Compound 14, 1-(2-chloroethyl)-1-nitroso-3-furfuryl-3-(D-ribofuranosyl)urea]	64	18.4	30.6	100	100	100	100	1.56	100	Toxic (number of mice died/number of mice used) ([1]; 200 mg/kg/day i.p., 5 days): 5/5
